Assay results published in ChEMBL document CHEMBL5537185, “Discovery of the First-in-Class RORγ Covalent Inhibitors for Treatment of Castration-Resistant Prostate Cancer” (J Med Chem, 2024).
Activity calls are given as the source filed them. The calls are words filed in the database; no cut-off is given here.

Key:
[1] = molecular target: T1, Nuclear receptor ROR-gamma (Homo sapiens, UniProt P51449); assay: Inhibition of Gal4-fused RORgamma LBD (unknown origin) expressed in HEK293T cells incubated for 48 hrs by luciferase based assay; format: cell-based
T1 sequence (P51449 whole entry): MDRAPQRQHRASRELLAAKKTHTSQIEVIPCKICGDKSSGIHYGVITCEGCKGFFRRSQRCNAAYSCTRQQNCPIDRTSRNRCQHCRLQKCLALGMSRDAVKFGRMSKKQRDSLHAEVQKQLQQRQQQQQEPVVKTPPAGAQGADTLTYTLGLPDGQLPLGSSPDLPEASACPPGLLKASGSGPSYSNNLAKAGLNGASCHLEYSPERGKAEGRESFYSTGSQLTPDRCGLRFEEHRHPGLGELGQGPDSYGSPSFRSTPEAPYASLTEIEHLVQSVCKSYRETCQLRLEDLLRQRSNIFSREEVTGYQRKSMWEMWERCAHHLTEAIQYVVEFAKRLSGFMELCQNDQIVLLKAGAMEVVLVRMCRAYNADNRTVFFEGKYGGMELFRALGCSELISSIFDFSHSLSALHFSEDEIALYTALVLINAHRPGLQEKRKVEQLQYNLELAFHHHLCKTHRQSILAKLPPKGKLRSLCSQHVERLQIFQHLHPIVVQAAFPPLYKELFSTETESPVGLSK

[2] = Metabolic stability in mouse liver microsomes assessed as half life at 0.1 uM preincubated for 10 mins followed by NADPH addition and measured upto 60 mins by LC-MS/MS analysis; format: ADME, Microsome; details: time < 70 min
[3] = tested on: LNCaP C4-2B; assay: Antiproliferative activity against human LNCaP C4-2B cells incubated for 4 days by CCK8 assay; details: 96 h
[4] = tested on: CWR22R; assay: Antiproliferative activity against human 22Rv1 cells incubated for 4 days by CCK8 assay; details: 22Rv1, 96 h
[5] = tested on: LNCaP; assay: Antiproliferative activity against human LNCaP cells incubated for 4 days by CCK8 assay; details: 96 h
[6] = tested on: CWR22R; assay: Downregulation of AR-V7 expression in human 22Rv1 cells incubated for 48 hrs by qRT-PCR analysis; format: functional, cell-based; details: dose 1.25-5 µM
[7] = tested on: CWR22R; assay: Antitumor activity against human 22Rv1 cells xenografted in ip dosed NOD/SCID mouse assessed as tumor growth inhibition administered five times a week for 2 weeks and measured two times per week; format: functional, organism-based; details: dose 5-10 mg/kg
[8] = AUClast in ICR mouse at 10 mg/kg, po measured upto 24 hrs by LC-MS/MS analysis; format: ADME, organism-based; details: in vivo
[9] = tested on: CWR22R; assay: Downregulation of AR expression in human 22Rv1 cells incubated for 24 to 72 hrs by Western blot analysis; format: functional, cell-based; details: dose 1.25-5 µM, time 24-72 hrs
[10] = tested on: CWR22R; assay: Induction of apoptosis in human 22Rv1 cells assessed as increase in caspase-3 activity at 1.25 to 5 uM by Western blot analysis; format: functional, cell-based; details: dose 1.25-5 µM
[11] = tested on: LNCaP C4-2B; assay: Downregulation of AR expression in human LNCaP C4-2B cells at 1.25 to 5 uM by Western blot analysis; format: functional, cell-based; details: dose 1.25-5 µM, time 24-72 hrs, TDE = time-dependent effect
[12] = AUClast in ICR mouse at 3 mg/kg, iv measured upto 24 hrs by LC-MS/MS analysis; format: ADME, organism-based; details: in vivo
[13] = tested on: LNCaP C4-2B; assay: Downregulation of KLK3 mRNA expression in human LNCaP C4-2B cells at 1.25 to 5 uM incubated for 48 hrs by qRT-PCR analysis; format: functional, cell-based; details: dose 1.25-5 µM
[14] = Cmax in ICR mouse at 10 mg/kg, po measured upto 24 hrs by LC-MS/MS analysis; format: ADME, organism-based; details: in vivo
[15] = Toxicity in NOD/SCID mouse assessed as change in body weight at 5 to 10 mg/kg, ip administered five times a week for 2 weeks and measured two times per week; format: organism-based; details: in vivo, 336 h, dose 5-10 mg/kg
[16] = tested on: LNCaP C4-2B; assay: Downregulation of AR-V7 expression in human LNCaP C4-2B cells at 1.25 to 5 uM by Western blot analysis; format: functional, cell-based; details: dose 1.25-5 µM, TDE = time-dependent effect
[17] = Volume of distribution at steady state in ICR mouse at 3 mg/kg, iv measured upto 24 hrs by LC-MS/MS analysis; format: ADME, organism-based; details: in vivo, read-out: Vdss
[18] = tested on: CWR22R; assay: Antitumor activity against human 22Rv1 cells xenografted in NOD/SCID mouse assessed as tumor growth inhibition at 5 mg/kg, ip administered five times a week for 2 weeks and measured two times per week; format: functional; details: 22Rv1, 336 h, read-out: TGI
[19] = tested on: CWR22R; assay: Downregulation of AR-V7 expression in human 22Rv1 cells at 1.25 to 5 uM by Western blot analysis; format: functional, cell-based; details: dose 1.25-5 µM, time 24-72 hrs, TDE = time-dependent effect
[20] = AUCinfinity in ICR mouse at 10 mg/kg, po measured upto 24 hrs by LC-MS/MS analysis; format: ADME, organism-based; details: in vivo
[21] = tested on: CWR22R; assay: Downregulation of KLK3 mRNA expression in human 22Rv1 cells at 1.25 to 5 uM incubated for 48 hrs by qRT-PCR analysis; format: functional, cell-based; details: dose 1.25-5 µM
[22] = tested on: LNCaP C4-2B; assay: Downregulation of AR-V7 expression in human LNCaP C4-2B cells incubated for 24 to 72 hrs by Western blot analysis; format: functional, cell-based; details: dose 1.25-5 µM, time 24-72 hrs
[23] = tested on: CWR22R; assay: Downregulation of AR expression in human 22Rv1 cells at 1.25 to 5 uM by Western blot analysis; format: functional, cell-based; details: dose 1.25-5 µM, time 24-72 hrs, TDE = time-dependent effect
[24] = tested on: LNCaP C4-2B; assay: Downregulation of AR expression in human LNCaP C4-2B cells at 1.25 to 5 uM incubated for 48 hrs by qRT-PCR analysis; format: functional, cell-based; details: dose 1.25-5 µM
[25] = tested on: CWR22R; assay: Downregulation of AR expression in human 22Rv1 cells incubated for 48 hrs by qRT-PCR analysis; format: functional, cell-based; details: dose 1.25-5 µM
[26] = tested on: CWR22R; assay: Downregulation of NKX3-1 mRNA expression in human 22Rv1 cells at 1.25 to 5 uM incubated for 48 hrs by qRT-PCR analysis; format: functional, cell-based; details: dose 1.25-5 µM
[27] = tested on: CWR22R; assay: Antitumor activity against human 22Rv1 cells xenografted in NOD/SCID mouse assessed as tumor growth inhibition at 10 mg/kg, ip administered five times a week for 2 weeks and measured two times per week; format: functional; details: 22Rv1, 336 h, read-out: TGI
[28] = Cmax in ICR mouse at 3 mg/kg, iv measured upto 24 hrs by LC-MS/MS analysis; format: ADME, organism-based; details: in vivo
[29] = tested on: CWR22R; assay: Inhibition of colony formation in human 22Rv1 cells compound addition at every 3 days and measured after 14 days by crystal violet staining based assay; format: functional, cell-based; details: dose 1.25-5 µM, time 14.0 day
[30] = Toxicity in NOD/SCID mouse assessed as tolerability at 5 to 10 mg/kg, ip administered five times a week for 2 weeks and measured two times per week; format: organism-based; details: in vivo, 336 h, dose 5-10 mg/kg
[31] = Clearance in ICR mouse at 3 mg/kg, iv measured upto 24 hrs by LC-MS/MS analysis; format: ADME, organism-based; details: in vivo
[32] = Half life in ICR mouse at 10 mg/kg, po measured upto 24 hrs by LC-MS/MS analysis; format: ADME, organism-based; details: in vivo
[33] = Half life in ICR mouse at 3 mg/kg, iv measured upto 24 hrs by LC-MS/MS analysis; format: ADME, organism-based; details: in vivo
[34] = tested on: LNCaP C4-2B; assay: Downregulation of NKX3-1 mRNA expression in human LNCaP C4-2B cells at 1.25 to 5 uM incubated for 48 hrs by qRT-PCR analysis; format: functional, cell-based; details: dose 1.25-5 µM
[35] = tested on: LNCaP C4-2B; assay: Induction of apoptosis in human LNCaP C4-2B cells assessed as increase in caspase-3 activity at 1.25 to 5 uM by Western blot analysis; format: functional, cell-based; details: dose 1.25-5 µM
[36] = tested on: CWR22R; assay: Induction of apoptosis in human 22Rv1 cells assessed as increase in caspase-7 activity at 1.25 to 5 uM by Western blot analysis; format: functional, cell-based; details: dose 1.25-5 µM
[37] = molecular target: T2, Nuclear receptor ROR-gamma (Homo sapiens) (UniProt P51449); assay: Covalent binding affinity to RORgamma (unknown origin) expressed in Escherichia coli assessed as covalent adduct formation incubated for 4 hrs by mass spectrometric analysis
T2 sequence (whole entry): T1 sequence (P51449 whole entry)

[38] = tested on: LNCaP C4-2B; assay: Downregulation of AR expression in human LNCaP C4-2B cells incubated for 24 to 72 hrs by Western blot analysis; format: functional, cell-based; details: dose 1.25-5 µM, time 24-72 hrs
[39] = tested on: CWR22R; assay: Downregulation of KLK2 mRNA expression in human 22Rv1 cells at 1.25 to 5 uM incubated for 48 hrs by qRT-PCR analysis; format: functional, cell-based; details: dose 1.25-5 µM
[40] = tested on: CWR22R; assay: Downregulation of AR-V7 expression in human 22Rv1 cells incubated for 24 to 72 hrs by Western blot analysis; format: functional, cell-based; details: dose 1.25-5 µM, time 24-72 hrs
[41] = tested on: LNCaP C4-2B; assay: Downregulation of KLK2 mRNA expression in human LNCaP C4-2B cells at 1.25 to 5 uM incubated for 48 hrs by qRT-PCR analysis; format: functional, cell-based; details: dose 1.25-5 µM
[42] = tested on: LNCaP C4-2B; assay: Inhibition of colony formation in human LNCaP C4-2B cells compound addition at every 3 days and measured after 14 days by crystal violet staining based assay; format: functional, cell-based; details: dose 1.25-5 µM, time 14.0 day
[43] = AUCinfinity in ICR mouse at 3 mg/kg, iv measured upto 24 hrs by LC-MS/MS analysis; format: ADME, organism-based; details: in vivo
[44] = Oral bioavailability in ICR mouse at 10 mg/kg measured upto 24 hrs by LC-MS/MS analysis; format: ADME, organism-based; details: in vivo
[45] = tested on: LNCaP C4-2B; assay: Induction of apoptosis in human LNCaP C4-2B cells assessed as increase in caspase-7 activity at 1.25 to 5 uM by Western blot analysis; format: functional, cell-based; details: dose 1.25-5 µM
[46] = tested on: LNCaP C4-2B; assay: Downregulation of AR-V7 expression in human LNCaP C4-2B cells incubated for 48 hrs by qRT-PCR analysis; format: functional, cell-based; details: dose 1.25-5 µM

C=CC(=O)Nc1ccccc1-c1ccc(NC(=O)c2ccc(OC)nc2)cc1C
IC50 [1]: 4640 nM

C=CC(=O)Nc1ccccc1-c1ccc(NC(=O)Cc2cccc(C#N)c2)cc1C
IC50 [1]: 2020 nM

C=CC(=O)Nc1ccccc1-c1ccc(NC(=O)Cc2ccccc2[N+](=O)[O-])cc1C
IC50 [1]: 3040 nM

C=CC(=O)Nc1ccccc1-c1ccc(NC(=O)c2ccc(S(C)(=O)=O)cc2)cc1C
IC50 [1]: 5710 nM

C=CC(=O)Nc1ccccc1-c1ccc(NS(=O)(=O)Cc2ccc([N+](=O)[O-])cc2)cc1C
IC50 [1]: 6610 nM

C=CC(=O)Nc1ccccc1-c1c(Cl)cc(NC(=O)Cc2ccc(S(=O)(=O)CC)cc2)cc1Cl
half-life at 0.1 µM [2]: 2.07 min
IC50 [3]: 290 nM
IC50 [4]: 920 nM
IC50 [1]: 50 nM
IC50 [5]: 700 nM

C=CC(=O)Nc1ccccc1-c1ccc(NC(=O)Cc2ccc(S(C)(=O)=O)cc2)cc1C
IC50 [1]: 1230 nM

C/C=C/C(=O)Nc1ccccc1-c1ccc(NC(=O)Cc2ccc(S(=O)(=O)CC)cc2)cc1C
IC50 [1]: 1630 nM

C=CC(=O)Nc1ccccc1-c1ccc(NC(=O)Cc2ccc(S(=O)(=O)CC)cc2)cc1C
half-life at 0.1 µM [2]: 10 min
IC50 [3]: 990 nM
IC50 [4]: 2250 nM
IC50 [5]: 920 nM

C=CC(=O)Nc1ccccc1-c1ccc(NC(=O)Cc2ccc(S(=O)(=O)CC)cc2)cc1Cl
Activity [6]: Dose-Dependent Effect
Activity [7]: Dose-Dependent Effect
AUC(0-t) at 24 h [8]: 248 ng·h/mL
Activity [9]: Dose-Dependent Effect
Activity [10]: Active
Activity [11]: Tde
AUC(0-t) at 24 h [12]: 584 ng·h/mL
Activity [13]: Active
half-life at 0.1 µM [2]: 21.3 min
IC50 [3]: 470 nM
Cmax [14]: 270 ng/mL
Activity [15]: Non-Toxic
Activity [16]: Tde
Vd [17]: 0.75 L/kg
inhibition in vivo at 5 mg/kg [18]: 41.9%
Activity [19]: Tde
AUC(0-inf) [20]: 251 ng·h/mL
IC50 [4]: 770 nM
Activity [21]: Active
Activity [22]: Dose-Dependent Effect
Activity [23]: Tde
Activity [24]: Dose-Dependent Effect
Activity [25]: Dose-Dependent Effect
Activity [26]: Active
inhibition in vivo at 10 mg/kg [27]: 62.6%
Cmax [28]: 2000 ng/mL
inhibition [29]: Dose-Dependent Effect
IC50 [1]: 210 nM
Activity [30]: Non-Toxic
clearance [31]: 86.8 mL/min/kg
half-life [32]: 36.6 min
half-life [33]: 13.2 min
Activity [34]: Active
IC50 [5]: 630 nM
Activity [35]: Active
Activity [36]: Active
Activity [37]: Active
Activity [38]: Dose-Dependent Effect
Activity [39]: Active
Activity [40]: Dose-Dependent Effect
Activity [41]: Active
inhibition [42]: Dose-Dependent Effect
AUC(0-inf) [43]: 585 ng·h/mL
bioavailability [44]: 12.7%
Activity [45]: Active
Activity [46]: Dose-Dependent Effect

C=CC(=O)Nc1ccccc1-c1ccc(NC(=O)c2cccc(C#N)c2)cc1C
IC50 [1]: > 20000 nM
